Entries after “also recorded” stand apart in the source; their conditions may differ. Non-standard residues stand in square brackets, D forms with d.

One series relates to 3T3-L1 adipocytes. Briefly: cAMP production in 3T3-L1 adipocytes. The class given is cell-based. Conditions: CST 100 nM, ISO 10 μM, 10 min. (cAMP levels reflect the balance of adenylyl cyclase and phosphodiesterase activity.)
The test system of series [1] is PC-12 neuroendocrine cells. The series can be described thus: cAMP production in PC-12 cells. The class given is cell-based. Conditions: CST 100 nM, ISO 10 μM, 10 min.
The next series concerns the target Chk2 protein kinase (Homo sapiens, UniProt O96017). Conditions: Jobson et al. (9); cited from earlier work.
Series [2] can be described thus: Screening of CST structural analogs for blood pressure reduction. The following applies: in vivo.
For the next series, the system named is CST-KO mice. The series can be described thus: ITT in insulin resistant CST-KO mice with CST, RI-CST or NSC-177941. The class given is in vivo. Conditions: for insulin sensitivity during ITT: NCD-fed CST-KO mice, insulin 0.4 mU/g BW. From the text: FIG. 16. […] Figures in parentheses indicate number of animals.
The subject of another series is primary adipocytes. Briefly: Lipolytic glycerol release from primary adipocytes. The class given is cell-based, mice. The following applies: for effect on the lipolytic effect of isoproterenol: adipocytes, with isoproterenol 10 μM. As to the method: Mice were fasted for 12 hr prior to blood draw. Triglycerides (TG) and non-esterified fatty acids (NEFA) were assayed using kits from Wako Diagnostics (Richmond, Va.). Glycerol was assayed using a kit from Sigma (St Louis, Mo.). Media from the explant cultures and mouse serum were analysed for glycerol and NEFA as a measure of lipolysis. ELISA kits were used to determine plasma levels of leptin, adiponectin (Millipore, Billerica, Mass.) and CST (Bachem, Torrance, Calif.). For CST assay, plasma samples and reference standards were passed through mini C18 columns and the flow-through fractions were assayed. The same kits were used for measurements in culture media.
Primary adipocytes were isolated from epididymal fat pads essentially as described (43). Adipose tissues from WT and Chga-KO mice were minced in Krebs-Ringer bicarbonate-Hepes (KRBH) buffer, pH 7.4, containing 10 mM bicarbonate, 30 mM Hepes, 200 nM adenosine, 2.5 mM glucose and 1% fatty-acid-free BSA, and digested for 30-40 min with Type I collagenase (10 mg/g tissue; Invitrogen, Carlsbad, Calif.) with gentle swirling in a 37° C. incubator. The digestion mixture was then filtered through a nylon strainer and centrifuged at 400×g for 1 min. The oily layer (released from broken cells) above floating fat cells was skimmed off, and fat cells were recovered from the top and washed three times with warm KRBH.

A further series concerns HFD-fed Chga-KO mice. The series can be described thus: Peptide supplementation to HFD-fed Chga-KO mice (insulin sensitivity). The class given is in vivo. Conditions: HFD (60%)-fed Chga-KO mice.
In series [3] the test system is Chga-/- mice. Briefly: Blood pressure in hypertensive Chga-KO mice. The class given is in vivo.
The test system of series [4] is Chga-/- mice. The following applies: reference (8), cited from earlier work.
The conditions of series [5]: reference (8); cited from earlier work.
Series [6] deals with STAT3 and AMPK phosphorylation. Briefly: Stat3 and AMPK signaling in adipose explants from DIO mice. The class given is cell-based. The following applies: CST in vivo, leptin 1 μM ex vivo 30 min. As to the method: (§1) FIG. 9. Stat3 and AMPK signaling in the adipose tissue explants from DIO and Ob/Ob mice treated with saline, CST (in vivo) and leptin (ex vivo). Explants from DIO mice (A&B) and Ob/Ob mice (C&D) were incubated with saline or leptin (1 μM) for 30 min, homogenized and immunoblotted for phospho- and total Stat3 (A&C) as well as phospho- and total AMPK signals (B&D). Results are presented as the ratio of signal strength of phospho-over total.
(§2) Adipose tissue explants were prepared as described (42). Epididymal fat pads from 12 hr fasted WT, Chga-KO, DIO and Ob/Ob mice with or without CST treatment were collected in Kreb-Ringer-phosphate (KRP) buffer containing 10 mM Hepes and 0.5% BSA. Tissues were minced to 1-2 mm size and treated with 100 nM CST, 1 μM leptin, or saline for 30 min (for signaling analysis) or 3 hr (for lipolysis and β-oxidation assays). Explants were also treated acutely with CST, leptin, a combination, or saline. At the end, incubation media were saved for analysis of glycerol and fatty acid release. Explants were washed prior to homogenization for immunoblotting and analysis of fatty acid oxidation.
(§3) Adipose tissue explants after treatments ex vivo and tissues from mice treated in vivo were homogenized in a buffer containing phosphatase and protease inhibitors (20 mM Tris/HCl (pH 7.5), 250 mM sucrose, 2 mM EDTA, 2 mM EGTA, 2 mM Na3VO4, 10 mM NaF, 2 mM Na4P2O7, 1 mM phenylmethylsulfonyl fluoride, 20 μg/ml leupeptin, 10 μg/ml aprotinin, and 1 μM LR-microcystin) as described (38,44). Homogenates were subjected to SDS-PAGE and immunoblotted. Primary antibodies for AMPK and Stat3 were from Cell Signaling Technology (Beverly, Mass.). The chemiluminescence kit was from Pierce (Rockford, Ill.).

Series [7] relates to adipose tissue explants from Ob/Ob mice. The series can be described thus: Lipolysis and fatty acid oxidation in adipose explants of Ob/Ob mice. The class given is cell-based. As to the method: (§4) FIG. 8. Lipolysis and fatty acid oxidation in the adipose tissue explants of DIO and Ob/Ob mice after treatment with saline or CST for 16 days. Explants were incubated with saline or leptin (1 μM) for 3 hr and the concentrations of glycerol (A&C) and NEFA (B&D) released into the media from DIO (A&B) and Ob/Ob (C&D) explants were determined as a measure of lipolysis. Homogenates of the explants from DIO (E) and Ob/Ob […] were used to determine their capacity for oxidation of U-^14C-palmitate in response to the treatment with saline, CST, leptin and CST+leptin. The ^14CO2 released was captured and counted as the measure of fatty acid oxidation.
as §2
(§5) Oxidation of radiolabeled palmitate in the homogenates of adipose tissue explants as described previously (45). For oxidation studies of cultured cells, HepG2 (hepatocytes) and 3T3-L1 preadipocytes were obtained from ATCC and cultured following supplier's protocol. Confluent 3T3-L1 cultures were differentiated into adipocytes by treating with a cocktail of dexamethasone (100 nM), IBMX ([…]) and insulin (100 nM) for 10 days. Media were then switched to serum-free DMEM with 1% BSA. Hepatocytes were assayed for lipogenesis and fat oxidation in response to CST treatment. Serum-free cultures were treated with CST (100 nM) for 24 hr followed by a 2 hr incubation with U^14C-palmitate (0.5 μCi/ml). Fatty acid oxidation in cells was determined by modifying a published method (46). Specifically, the culture media in 24-well plates were acidified with 10% HClO4 after incubation with the labeled fatty acid and immediately covered with a thick filter paper sheet (cut to size) soaked in 2 N NaOH and placed underneath the plastic lid. The whole plate was sealed with parafilm. After further incubation for 2 hr, the filter paper sheet was marked as circles around the rim of the wells and then the circles were excised. The filter discs were counted to determine the amount of ^14CO2 absorbed in the papers. Cells in the culture wells were lysed in 1 N NaOH and protein content was assayed using Folin's reagent (BioRad, Hercules, Calif.).

For series [8], the system named is adipose tissue explants from DIO mice. The series can be described thus: Lipolysis and fatty acid oxidation in adipose explants of DIO mice. The class given is cell-based. As to the method:
as §4, §2, §5

The test system of series [9] is STAT3 and AMPK phosphorylation. Briefly: Stat3 and AMPK signaling in adipose explants from Ob/Ob mice. Conditions: CST in vivo, leptin 1 μM ex vivo 30 min. The class given is cell-based. How it is done: as §1, §2, §3
The test system of series [10] is AMPK and Stat3 phosphorylation. The series can be described thus: AMPK and Stat3 signaling in adipose tissue explants from Chga-KO mice. The class given is cell-based. Conditions: leptin 1 μM 30 min. As to the method:
FIG. 6. Regulation of AMPK and Stat3 signaling by CST in adipose tissue explants. Explants from Chga-KO mice were treated with saline or CST (100 nM for 30 min) and immunoblotted for pAMPK and AMPK (A). Adipose explants from WT and Chga-KO mice were immunoblotted for pAMPK and AMPK after treatment with saline or leptin (1 μM) for 30 min (B). pAMPK and AMPK (C) and pStat3 and Stat3 (D) signaling in adipose explants from WT and Chga-KO mice after treatment for 30 min with saline, CST (100 nM), leptin (1 μM) or leptin plus CST.
as §2, §3

[11] abbreviates: CST in vivo 16 days, leptin 1 μM ex vivo 3 hr.

Sequence of Chk2 protein kinase (O96017 whole entry): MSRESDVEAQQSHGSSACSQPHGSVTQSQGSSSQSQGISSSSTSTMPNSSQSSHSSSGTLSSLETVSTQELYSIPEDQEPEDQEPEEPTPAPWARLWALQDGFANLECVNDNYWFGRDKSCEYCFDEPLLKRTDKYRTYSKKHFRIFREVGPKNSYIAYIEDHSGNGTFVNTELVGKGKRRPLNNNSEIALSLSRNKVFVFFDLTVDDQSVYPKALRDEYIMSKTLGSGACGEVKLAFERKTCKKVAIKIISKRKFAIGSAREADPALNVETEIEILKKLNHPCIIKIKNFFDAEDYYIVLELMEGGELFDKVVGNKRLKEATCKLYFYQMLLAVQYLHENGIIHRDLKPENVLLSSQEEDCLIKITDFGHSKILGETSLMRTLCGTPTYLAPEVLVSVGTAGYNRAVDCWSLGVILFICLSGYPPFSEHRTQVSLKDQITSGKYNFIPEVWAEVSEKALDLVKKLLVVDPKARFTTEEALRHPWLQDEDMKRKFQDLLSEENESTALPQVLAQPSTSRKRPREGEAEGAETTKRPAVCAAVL

For `CC(C)NCC(O)c1ccc(O)c(O)c1` (racemic) [isoproterenol, (RS)-4-[1-hydroxy-2-(isopropylamino)ethyl]benzene-1,2-diol, reference compound], the cAMP production result (in the series on 3T3-L1 adipocytes; in series [1]) was “stimulated” each time.
Consider `C/C(=N\N=C(N)N)c1cccc(NC(=S)Nc2cccc(/C(C)=N/N=C(N)N)c2)c1` [NSC-177941, 1,3-bis[3-[(E)-N-(diaminomethyllideneamino)-C-methylcarbonimidoyl]phenyl]thiourea], for which the “inhibition of Chk2 protein kinase activity” value on Chk2 protein kinase is “inactive”. Moreover, the blood pressure entry in series [2] is “reducing blood pressure”. The “effect on insulin sensitivity in the first 30 min” value in the series with CST-KO mice (ITT in CST-KO mice) is recorded as “ineffective”. For the same compound, the “time window of increase in insulin sensitivity” value in the series with CST-KO mice (ITT in CST-KO mice) was in the range of 30 to 90 min. Besides, the figures for the “insulin sensitivity during ITT” value in the series with CST-KO mice and in the series with CST-KO mice (listed as NSC-177941) were “transient increase in insulin sensitivity” and “Improvement in insulin sensitivity”, respectively.
Take `Cc1ccc(N(CC2=NCCN2)c2cccc(O)c2)cc1` [phentolamine, 3-[(4,5-dihydro-1H-imidazol-2-ylmethyl)(4-methylphenyl)amino]phenol]: in the series on primary adipocytes, the “effect on the lipolytic effect of isoproterenol” value is “potentiated”. Also, in the series on primary adipocytes (primary adipocytes, substance alone), the “glycerol release (lipolysis)” value is listed as “stimulated lipolysis”.
As for `CNC[C@H](O)c1cccc(O)c1` [phenylephrine, (R)-3-[-1-hydroxy-2-(methylamino)ethyl]phenol], in the series with primary adipocytes, the “effect on the lipolytic effect of isoproterenol” value is reported as “dampened”.
Turning to “PST: anti-insulin CHGA-derived peptide pancreastatin (CHGA250-301) [reference compound]”, the “insulin sensitivity (GTT)” value in the series on HFD-fed Chga-KO mice is “reversed the phenotype”.
As for “amino-l372qpGpGrfGyararfslkmss352-carboxyl (SEQ ID NO:27) (H-[dL][dQ][dP]G[dP]G[dR][dF]G[dY][dA][dR][dA][dR][dF][dS][dL][dK][dM][dS][dS]-OH; SMILES CSCC[C@@H](NC(=O)[C@@H](CCCCN)NC(=O)[C@@H](CC(C)C)NC(=O)[C@@H](CO)NC(=O)[C@@H](Cc1ccccc1)NC(=O)[C@@H](CCCNC(=N)N)NC(=O)[C@@H](C)NC(=O)[C@@H](CCCNC(=N)N)NC(=O)[C@@H](C)NC(=O)[C@@H](Cc1ccc(O)cc1)NC(=O)CNC(=O)[C@@H](Cc1ccccc1)NC(=O)[C@@H](CCCNC(=N)N)NC(=O)CNC(=O)[C@H]1CCCN1C(=O)CNC(=O)[C@H]1CCCN1C(=O)[C@@H](CCC(N)=O)NC(=O)[C@H](N)CC(C)C)C(=O)N[C@H](CO)C(=O)N[C@H](CO)C(=O)O) [RI-CST, retro-inverso peptide equivalent of human CST]”, the “interval for which the therapeutic BP effect was sustained” value in the series on Chga-/- mice [3] (R-I versus W-T isoform) was above 8 h. Besides, the “high BP phenotype” value in the series on Chga-/- mice [3] (monogenic model of hypertension) was “effective in rescuing (reducing) the high BP phenotype”. Further, the “period of BP suppression” value in the series with Chga-/- mice [4] (compared to CST) is above 8 h. Besides, the SBP entry in the series with Chga-/- mice [4] (hypertensive Chga-KO mice) was “functional in reducing SBP”. Moreover, the “persistence of the insulin-sensitizing effect” value in the series with CST-KO mice (ITT in CST-KO mice) is “persisted throughout the experimental period”. For the same compound, the “insulin sensitivity during ITT” value in the series with CST-KO mice is reported as “increasing sensitivity to insulin; also recorded: Improvement in insulin sensitivity”. Also, the protease degradation result in series [5] is given as “fairly resistant”.
In the case of “leptin: adipokine hormone, ligand of leptin receptor (Ob-R)”, in series [6], the AMPK phosphorylation result is listed as “did not stimulate” and the STAT3 phosphorylation result is “did not stimulate”. The palmitate oxidation result in series [7] is “stimulatory for oxidation”. Also, the “lipolysis (glycerol and NEFA release)” value in [7] (setting [11]) is “stimulated lipolysis”. In addition, in series [8], the palmitate oxidation result is reported as “neither CST nor leptin alone stimulated oxidation”. Also, in [8] (setting [11]), the “NEFA release in the media” value is given as “did not stimulate lipolysis” and the “glycerol release in the media” value is given as “did not stimulate lipolysis”. Further, in series [9], the AMPK phosphorylation entry is recorded as “stimulated phosphorylation” and the STAT3 phosphorylation entry is recorded as “stimulated phosphorylation”. Besides, in series [10], the “phosphorylation of AMPK following acute leptin treatment, compared to WT” value was “decreased” and the “phosphorylation of STAT3 following acute leptin treatment, compared to WT” value is on record as “decreased”.

(Values after patent US9572862B2, “Methods for promoting lipolysis and oxidation in liver and adipose tissue using catestatin” (The Regents of the University of California, priority 2012, dated 2017).)
